Entries after “also recorded” stand apart in the source; their conditions may differ.
Key:
Assay type in all cases: cell-based
[1] = system: primary human hepatocytes; experiment: Cell viability by LDH release (CytoTox-One) in primary human hepatocytes; conditions: for viability compared to 0 dose (in words): primary human hepatocytes, standard treatment, moderate metabolic stress
Description: (§1) Primary human hepatocytes were purchased from Celsis In Vitro Technologies (1450 South Rolling Road Baltimore, MD 21227, USA). […] According to the information provided by the Celsis, hepatocytes from each donor should have at least 70% viability and more than 5 million viable cells. The medium for the culture of hepatocytes was provided by Celsis. They were InVitroGRO CP (for plating) medium (Z99029) and InVitroGRO HI (for incubation) medium (Z99009). Antibiotics (Torpedo Antibiotics Mix, Z990007) were also from Celsis. The thaw, plating and culture of cells were carried out according to the instruction provided by the Celsis In Vitro Technologies.
(§2) For the measurement of cell viability after treatment of test compound, CytoTox-One Homogeneous Membrane Integrity Assay kit (Promega, G7891) was used. The CytoTox-One Assay is a rapid fluorescent measure of the release of lactate dehydrogenase (LDH) from cells with a damaged membrane. The number of […] cells correlates to the fluorescence intensity determined by a fluorescence plate reader (Hidex Chameleon V multiplate reader, Hidex Oy, Turku, Finland) with excitation 544 nm and emission 590 nm. For the measurement of cellular reactive oxygen species (ROS), DCFDA Cellular ROS Detection Assay Kit from Abcam (ab113851) was used. Reactive oxygen species (ROS) assay kit (ab113851) uses the cell permeant reagent 2′,7′-dichlorofluorescein diacetate (DCFDA), a fluorogenic dye that measures hydroxyl, peroxyl and other ROS activity with the cell. The activity of ROS was measured by a fluorescence plate reader (Hidex) with excitation/emission wavelengths of 485 nm/535 nm.
(§3) The culture of primary hepatocytes was carried out based on the instructions provided by Celsis. After thawing, the cells were suspended in InVitroGRO CP medium. Thereafter the viability of cells was determined using the Trypan Blue exclusion method. Then the concentration of cells was adjusted using InVitroGRO CP medium, so about 30000-35000 cells/100 μl/well can be seeded in collagen I coated 96 well plate (BD, 734-0248).
(§4) After seeding, the cells were cultured overnight in the cell culture incubator (Sanyo MCO 18) at atmosphere of 95% air, 5% CO2 at 37° C. Thereafter, the culture medium for the cells was changed to InVitroGRO Hi (Hi Medium) containing test compound (D-glyceric acid calcium salt dehydrate) at the concentrations of 0, 0.2, 2 and 20 μg/ml (study 1, Table 1.1.1) and 0, 0.4, 2 and 10 μg/ml (study 2, Table 1.1.2).
(§5) After 24 h (in study 1) and 20 h (in studies 2-4) incubation medium was renewed. Second renewal of the incubation medium occurred at 48 h in study 1 and at 40 h in other studies. ROS and LDH were measured after 1.5-2 hours after last change of the medium, i.e. in a situation with moderate metabolic stress.
The measurement of LDH from medium (leaked LDH) and from cell and medium (total LDH) was carried out according to the instruction provided by the Promega (G7891). The plate was incubated at an incubator to achieve a temperature of 22° C. Thereafter, equal volume of CytoTox-ONE Reagent to cell culture medium (100 μl) was added to each well and mix for 30 seconds. Then they were incubated for 10 min at 22° C., and then 50 μl of Stop Solution was added to each well. After gentle mixing, the fluorescence signal was measured at an excitation wavelength of 560 nm and emission wavelength of 590 nm using the Hidex Chameleon V multiplate reader (Hidex Oy, Turku, Finland).
For the total LDH measurement, all the steps are same except a 2 μl of Lysis Solution (per 100 μl original volume) will be added to the each well to lyse the cells before CytoTox-ONE Reagents will be added.
For the LDH and ROS assays, individual values of each measurement were stored and average value of fluorescence signals of various repeats of each treatment at studied time point were calculated and compared. […] Viability (LDH) measurements contained 4-6 repeats depending on the study. […]

[2] = system: human primary hepatocytes; experiment: NAD+/NADH quantification in human hepatocytes; design: NADtot / NADH / NAD+ / NAD+/NADH: unit not given here; conditions: donor alpha, new nutrition at 48 h, N = 5; 14 (μM); 48 h + 3 h
Description: For the measurement of total NAD (NADtot=NADH+NAD^+) and NAD^+/NADH ratio, a NAD^+/NADH Quantification kit (MAK037) from Sigma was used. NAD functions as an electron carrier, fluctuating between the oxidized (NAD^+) and reduced (NADH) forms. In addition, NAD^+ plays critical roles in ADP-ribosylation reaction and as a substrate for sirtuins. According to the Sigma instruction, the NAD^+/NADH Quantification kit (Sigma) provides a convenient tool for sensitive detection of NAD, NADH and their ratio without requirement to purify them from samples. Important to notice is that the kit measures NADH and NAD^+ in whole cell including all cell organelles and compartments. Mitochondrial matrix is clearly dominant NADH producer from TCA and beta oxidation (consuming naturally the same amount of NAD^+ in redox reactions). Importantly, formed NADH is also typically oxidized into NAD^+ in the matrix by Complex I in ETC. As is well known anaerobic carbohydrate metabolism, i.e. glycolysis, in cytosol also consumes NAD^+ and produces NADH.
Cell culture in NADH-tests was like in Example 1.1. The change of the medium with DGAcs was conducted at 0 h, 24 h and 48 h. NAD measurements were made at 48+3 h in all cases. For CDP also HPA was tested, and for DOO no new nutrition at 48 h was added, i.e. test was conducted in fasting conditions.

human hepatocytes = experiment: Gene expression from hepatocytes lysates; conditions: donor three, N = 5; 14 (μM)
[3] = system: primary human hepatocytes; experiment: Cellular ROS detection (DCFDA) in primary human hepatocytes; conditions: primary human hepatocytes, moderate metabolic stress (1.5-2 h after change of medium)
Description: as §1, §2, §3, §4
In study 3 also LGA and HPA were tested and compared to DGA (see FIGS. 11c and 11d) with same doses as in study 2.
In studies 2-4 additional diet with 0.75 mM of palmitic acid (“fatty acid diet”) was added to Hi Medium. Hi Medium in itself contains ample amounts of glucose and fructose and other necessary ingredients for keeping viability of the cell culture at optimal level.
as §5
The measurement of cellular reactive oxygen species (ROS) was carried out according to the instruction of Abcam (ab113851). At the end of treatment time point, culture medium was taken away for leaked LDH measurement and cells were washed with 100 μl/well PBS once. Thereafter 100 μl/well of DCDA mix was added and incubated for 45 min at 37° C. in the dark. Then cells were washed once with 1× buffer solution. The fluorescence signal was measured at an excitation wavelength of 485 nm and emission wavelength of 535 nm using the Hidex Chameleon V multiplate reader (Hidex Oy, Turku, Finland).
For the LDH and ROS assays, individual values of each measurement were stored and average value of fluorescence signals of various repeats of each treatment at studied time point were calculated and compared. […]

With `O=C(O)C(=O)CO` [HPA, hydroxypyruvate] the “viability compared to 0 dose (in words)” value [1] was “modestly increase the viability”, the “Change in NAD+/NADH vs. Control” value [2] was −47% and the “NAD+” value [2] was 0.010. For the same molecule, the “NAD+/NADH” value [2] was 0.045, the NADH [2] was 0.222 and the NADtot [2] was 0.232. For the same molecule, the “CYP2B6 gene expression deviation from control” value (human hepatocytes) was 7%, the “HO-1 gene expression deviation from control” value (human hepatocytes) was 1% and the “PGC-1a gene expression deviation from control” value (human hepatocytes) was −2%. The “ROS compared to 0 dose/control (in words)” value [3] was “decrease ROS levels significantly; also recorded: reduced ROS”.

In the case of `O=C(O)[C@@H](O)CO` [LGA, L-glyceric acid], the “viability compared to 0 dose (in words)” value [1] is reported as “modestly increase the viability” and the “ROS compared to 0 dose/control (in words)” value [3] is reported as “decrease ROS levels significantly”.

Work on trolox [Vitamin E, reference compound] yielded a decrease of viability ([1]; donor one, High Medium only, equimolar comparison, 20+20+1.5 h, FIG. 6) of about 23%.
